Where a name gives a salt, the structure may show the parent alone.
Biological target: coagulation factor Xa, in the presence of antithrombin (Homo sapiens, UniProt P01008)
Assay: in vitro model of inhibition of coagulation factor Xa in the presence of antithrombin (anti-factor Xa activity)
Type: biochemical
Settings: method per Herbert et al., Blood 1998, read-out: IC50 (dose for 50% inhibition), inhibition of coagulation factor Xa (converted)
Description: The pharmacological activity of these products was in particular studied in an in vitro model of inhibition of coagulation factor Xa, in the presence of antithrombin (anti-factor Xa activity dependent on the presence of antithrombin), as described by J.-M. Herbert et al., Blood, 1998, 91, 4197-4205. In this model, the antithrombotic properties of the compounds according to the invention are confirmed.

Chain of coagulation factor Xa, in the presence of antithrombin (P01008 33-464): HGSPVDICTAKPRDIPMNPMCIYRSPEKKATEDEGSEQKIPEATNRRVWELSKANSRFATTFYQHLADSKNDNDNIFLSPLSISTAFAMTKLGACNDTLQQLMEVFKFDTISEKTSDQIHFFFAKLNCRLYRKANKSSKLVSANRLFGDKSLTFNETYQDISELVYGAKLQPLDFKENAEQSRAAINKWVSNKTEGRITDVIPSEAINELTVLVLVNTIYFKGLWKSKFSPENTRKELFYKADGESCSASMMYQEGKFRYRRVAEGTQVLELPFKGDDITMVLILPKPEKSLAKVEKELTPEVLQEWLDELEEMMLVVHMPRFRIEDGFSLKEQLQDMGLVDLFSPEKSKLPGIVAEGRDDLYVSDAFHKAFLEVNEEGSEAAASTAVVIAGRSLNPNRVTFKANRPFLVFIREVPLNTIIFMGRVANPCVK

IC50: 10.4 nM
Compound: COC1OC(COS(=O)(=O)O)C(OC2OC(C(=O)O)C(OC3OC(COS(=O)(=O)O)C(OC4OC(C(=O)O)C(OC5OC(COS(=O)(=O)O)C(OC)C(OC)C5NC(=O)CCCCCN)C(OC)C4OC)C(OS(=O)(=O)O)C3OS(=O)(=O)O)C(OC)C2OC)C(OS(=O)(=O)O)C1OS(=O)(=O)O [compound 1, Methyl(2-[N-(6-aminohexanoyl)]-2-deoxy-3,4-di-O-methyl-6-O-sulfonato-α-D-glucopyranosyl)-(1→4)-(2,3-di-O-methyl-β-D-glucopyranosyluronic acid)-(1→4)-(2,3,6-tri-O-sulfonato-α-D-glucopyranosyl)-(1→4)-(2,3-di-O-methyl-α-L-idopyranosyluronic acid)-(1→4)-2,3,6-tri-O-sulfonato-α-D-glucopyranoside, sodium salt]
